Test results: US6303618A, “Cyclin dependent kinase inhibiting purine derivatives” (priority 1997, dated 2001)
Values joined by “and” are separate entries in the source; they are usually repeats but may differ in a detail not shown here. Equal values may be shown once. Read-outs that look alike come from different tables or passages of the source.

Legend:
[1] = biological target: T1, CDK4 (Homo sapiens, UniProt P11802); experiment: CDK inhibition assay, CDK4; assay type: biochemical; conditions: Table 1
From the text: (§1) Apart from reference compounds, the compounds listed are accompanied by an NU reference or identification code number.
(§2) By way of example, however, a typical protocol is summarised below.

[2] = biological target: CDK2 (Homo sapiens, UniProt P24941); experiment: CDK inhibition assay, CDK2; assay type: biochemical; conditions: for IC50: Table 1; for inhibition at 100 µM: read-out: % inhibition CDK2, at 100 μM
From the text: as §1, §2

[3] = biological target: CDK1 (p34 cdc2)/cyclin B; experiment: CDK inhibition assay (histone H1 kinase), CDK1; assay type: biochemical, starfish (Marthasterias glacialis); conditions: for IC50: CDK1, Table 1
Experimental: as §2
Histone H1 (type III-S (Sigma) 4° C.) 5 mg/ml in buffer C.
[^32 P]ATP […]: Make up using (multiples of) the following proportions:
DMSO cannot exceed 1% in the assay mixture. Inhibitors are added at 1/10 final assay volume and 10×final strength. DMSO stocks must therefore be diluted to 10×final desired concentration in ≤10% DMSO, ≥90% buffer C.
Start reaction in each tube at 30 second intervals by adding
5 ml [^32 P]ATP vortexing and placing in rack in waterbath at 30° C.
Terminate reaction after 10 min at 30 second intervals in tubes in same order by removing
25 ml reaction mix and spotting onto appropriately labelled filter, allowing to dry for 20-30 seconds and transferring to stirring 1% phosphoric acid.
Blank incubation is performed as above but without histone (add […] buffer C instead) Washing blank is […] ATP added directly to filter.

[4] = tested on: O^6 -methylguanine DNA-methyltransferase (MGMT)
[5] = Cytotoxicity; assay type: cell-based
[6] = Insolubility noted in the CDK assay
[7] = tested on: CDK6; conditions: in words; cited from earlier work
[8] = tested on: CDK; conditions: in words; cited from earlier work
[9] = tested on: many common kinases other than CDK's; conditions: in words; cited from earlier work
[10] = biological target: T1, CDK4; conditions: in words; cited from earlier work
[11] = read-out: % inhibition CDK2, at 10 μM
[12] = at 10 μM, read-out: % inhibition CDK2

T1 sequence (P11802 whole entry, species assumed): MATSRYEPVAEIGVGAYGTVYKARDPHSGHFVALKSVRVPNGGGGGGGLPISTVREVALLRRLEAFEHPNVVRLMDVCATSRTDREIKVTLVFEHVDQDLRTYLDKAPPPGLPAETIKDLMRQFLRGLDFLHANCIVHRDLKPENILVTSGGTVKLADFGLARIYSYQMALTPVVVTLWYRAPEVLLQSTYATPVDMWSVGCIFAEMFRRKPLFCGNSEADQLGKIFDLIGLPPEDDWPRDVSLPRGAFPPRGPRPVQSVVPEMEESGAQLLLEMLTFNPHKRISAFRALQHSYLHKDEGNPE
T1 sequence (P24385 whole entry partner, species assumed): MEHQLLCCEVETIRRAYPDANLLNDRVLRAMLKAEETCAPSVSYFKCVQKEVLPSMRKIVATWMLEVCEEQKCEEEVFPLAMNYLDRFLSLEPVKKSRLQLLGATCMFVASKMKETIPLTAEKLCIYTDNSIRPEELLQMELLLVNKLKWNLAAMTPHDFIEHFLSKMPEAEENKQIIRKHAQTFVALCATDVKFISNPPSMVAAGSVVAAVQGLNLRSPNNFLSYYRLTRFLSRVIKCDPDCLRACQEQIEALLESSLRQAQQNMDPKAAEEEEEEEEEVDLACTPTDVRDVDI

| Compound | IC50 ([1]; CDK4, read-out: IC50 CDK4) | inhibition at 100 µM [2] [%] | insolubility in CDK2 assay ([6]; at 100 μM) | inhibition at 10 µM [2, 11] [%] | other results |
| --- | --- | --- | --- | --- | --- |
| Nc1nc(OCc2ccccc2)c2[nH]cnc2n1 [NU2005, 2-amino-6-benzyloxypurine] | 100 µM | 64 ± 3 |  |  | IC50 ([2]; IC50 CDK2, CDK2): 28.6 µM; IC50 [3]: 35 µM |
| C=C(COc1nc(N)nc2[nH]cnc12)c1ccccc1 [NU2042, O^6-(2-Phenylallyl)guanine] | > 100 µM and 330 µM | 75 ± 2 |  |  | IC50 ([2]; CDK2, read-out: IC50 CDK2): 23.3 µM; IC50 [3]: 40 µM |
| CC(C)C(=O)COc1nc(N)nc2nc[nH]c12 [NU2056, O^6-(3-Methyl-2-oxobutyl)guanine] | 122 µM | 33 ± 2 |  |  | IC50 [3]: 22 µM |
| Nc1nc(OCC2CCCCC2)c2nc[nH]c2n1 [NU2058, O^6 -Cyclohexylmethylguanine] |  |  |  |  | activity as MGMT inhibitor [4]: very little activity; IC50 ([1]; IC50 CDK4, CDK4): 38 µM; cytotoxicity [5]: cytotoxic; inhibitory activity against CDK1(cdc2)/cyclin B complexes ([3]; in words, compared with olomoucine): very high inhibitory activity, comparable to that of olomoucine |
| Nc1nc(OCC2CC=CCC2)c2nc[nH]c2n1 (stereo not shown) [NU2073, O^6-(3'-Cyclohexenyl)methylguanine] | 53 µM | 87 ± 1 |  |  | IC50 ([2]; CDK2, read-out: IC50 CDK2): 98 µM and 18.8 µM; IC50 [3]: 3.2 µM |
| C=C(C)[C@@H]1CC=C(COc2nc(N)nc3[nH]cnc23)CC1 [NU2077] | > 100 µM |  | insol | 16 ± 26 | inhibition at 25 µM ([2]; read-out: % inhibition CDK2, at 25 μM): 54%; IC50 [3]: 22 µM |
| CO[C@@H]1O[C@H](COc2nc(N)nc3[nH]cnc23)[C@H]2OC(C)(C)O[C@@H]12 [NU6012, O^6 -Ribofuranosylguanine] | > 100 µM | 16 ± 5 |  |  | % inhibition CDK1 ([3]; at 100 μM): 32% |
| Nc1nc(OCC2CCCO2)c2nc[nH]c2n1 (stereo not shown) [NU6013, 2-amino-6-(2-tetrahydro-furanyl)-methyloxypurine] | 261 µM | 39 ± 5 |  |  | IC50 ([2]; CDK2, read-out: IC50 CDK2): > 500 µM; % inhibition CDK1 ([3]; at 100 μM): 48 ± 7% |
| Nc1nc(OCC23CC4CC(CC(C4)C2)C3)c2[nH]cnc2n1 [NU6014, 2-amino-6-adamantyl-methyloxypurine] | > 100 µM |  | Insol | 20 ± 4 |  |
| CC1(C)O[C@H]2[C@@H](O1)[C@@H](COc1nc(N)nc3[nH]cnc13)O[C@@H]1OC(C)(C)O[C@@H]12 [NU6017] | > 100 µM | 3 ± 7 |  |  | % inhibition CDK1 ([3]; at 100 μM): 10 ± 6% |
| Nc1nc(OCc2ccc3ccccc3c2)c2nc[nH]c2n1 [NU6018, 2-amino-6-(2-naphthyl)-methyloxypurine] | > 100 µM |  | Insol | 9 ± 9 | % inhibition CDK1 ([3]; at 10 μM): 12 ± 4% |
| Nc1nc(OCC2CCCCO2)c2nc[nH]c2n1 (stereo not shown) [NU6019, 2-amino-6-(2-tetrahydropyranyl)-methyloxypurine] | > 100 µM | 44 ± 2 |  |  | % inhibition CDK1 ([3]; at 100 μM): 51 ± 4% |
| Nc1nc(OCc2cccc3ccccc23)c2nc[nH]c2n1 [NU6020, 2-amino-6-(1-naphthyl)-methyloxypurine] | > 100 µM |  | Insol | 3 ± 4 | % inhibition CDK1 ([3]; at 10 μM): 10 ± 4% |
| Nc1nc(OCCC2CCCCC2)c2[nH]cnc2n1 [NU6023, 2-amino-6-cyclohexylethyloxypurine] | 69 µM | 58 ± 6 |  |  | IC50 ([2]; CDK2, read-out: IC50 CDK2): 47.6 µM; % inhibition CDK1 ([3]; at 100 μM): 68 ± 6% |
| Nc1nc(OCC2COc3ccccc3O2)c2nc[nH]c2n1 (stereo not shown) [NU6026, 2-amino-6-[1',4'-benzodioxanyl-2'-methyl]oxypurine] | > 100 µM | 96 |  | 12 | % inhibition CDK2 ([2]; at 10 μM): 9% |
| Nc1nc(N)c(N=O)c(OCC2CCCCC2)n1 [NU6027, 2,6-diamino-4-cyclohexyl-methyloxy-5-nitroso-pyrimidine] |  |  | Insol |  |  |
| Nc1nc(OC[C@@H]2CCC(=O)N2)c2nc[nH]c2n1 [NU6031, 2-amino-6-[(S)-2'-oxopyrrolidin-5'-methyl]oxypurine] | > 1000 µM | 20 ± 2 |  |  | IC50 ([2]; CDK2, read-out: IC50 CDK2): 314 µM; % inhibition CDK1 ([3]; at 100 μM): 26 ± 3% |
| Nc1nc(OC[C@H]2CCC(=O)N2)c2nc[nH]c2n1 [NU6032, 2-amino-6-[(R)-2'-oxopyrrolidin-5'-methyl]oxypurine] | > 1000 µM | 37 ± 2 |  |  | IC50 ([2]; CDK2, read-out: IC50 CDK2): 123 µM; % inhibition CDK1 ([3]; at 100 μM): 54 ± 2% |
| Nc1nc(OCC2CCCCC2)c2[nH]c(=O)[nH]c2n1 [NU6033, 2-Amino-6-cyclohexylmethyloxy-8-oxopurine] |  |  |  |  | insolubility in CDK1 assay ([6]; at 10 μM): insol. |
| Nc1cc(OCC2CCCCC2)nc(N)n1 [NU6034, 2,6-diamino-4(cyclohexylmethoxy)-pyrimidine] |  |  | Insol | 7 ± 3 |  |
| Nc1nc(N)c(N=Nc2ccc(Cl)cc2)c(OCC2CCCCC2)n1 [NU6037] |  |  | Insol |  | inhibition at 10 µM [2, 12]: 6 ± 4%; % inhibition CDK1 ([3]; at 10 μM): 3 ± 3% |
| Nc1nc(N)c(N=O)c(OCC2CC=CCC2)n1 (stereo not shown) [NU6045] |  |  | Insol | 70 ± 1 | IC50 ([2]; CDK2, read-out: IC50 CDK2): 6.1 µM; % inhibition CDK1 ([3]; at 10 μM): 73 ± 3% |
| Clc1nc(OCC2CCCCC2)c2[nH]cnc2n1 [NU6047, 2-chloro-6-cyclohexylmethoxypurine] |  |  | Insol | 5 ± 3 | insolubility in CDK1 assay ([6]; at 100 μM): Insol; % inhibition CDK1 ([3]; at 10 μM): 6 ± 4% |
| CN(C)c1nc(OCC2CCCCC2)c2nc[nH]c2n1 [NU6048, 2-dimethylamino-6-cyclohexyl methoxypurine] |  |  | Insol |  | insolubility in CDK1 assay ([6]; at 100 μM): Insol; inhibition at 10 µM [2, 12]: 31 ± 3%; % inhibition CDK1 ([3]; at 10 μM): 27 ± 6% |
| Cn1cnc2c(NCc3ccccc3)nc(NCCO)nc21 [Olomoucine, 2-(2-hydroxyethylamino)-6-benzylamino-9-methyl-purine] |  |  |  |  | activity against CDK6 [7]: neither has been found to be active; mode of inhibition [8]: competitive inhibitors for ATP binding; inhibitory activity in relation to many common kinases other than CDK's [9]: total lack of inhibitory activity |
| CC[C@H](CO)Nc1nc(NCc2ccccc2)c2ncn(C(C)C)c2n1 [roscovitine, 6-(benzylamino)-2(R)-[{1-(hydroxy-methyl)propyl}amino]-9-isopropylpurine] |  |  |  |  | mode of inhibition [8]: competitive inhibitors for ATP binding; activity against CDK4 [10]: neither has been found to be active |
